Key:
[1] = system: A20 B-cell leukemia cells; experiment: Viability of A20 cells treated with GPX4 inhibitor, with or without Ferrostatin-1; type: cell-based; conditions: for viability of A20 cells: various doses, 24 hours treatment
NFKB [2] = experiment: NFKB reporter activity in THP1-Dual monocytes co-cultured with treated A20 cells; type: cell-based, human; conditions: for NFKB signaling in THP1 monocytes: A20 cells treated 24 hours, then co-culture with THP1-Dual cells 24 hours
Procedure: A20 B-cell leukemia cells were treated with either control (DMSO) or various doses of RSL3, for 24 hours prior to co-culture with THP1-Dual cells for an additional 24 hours. RSL3 was purchased from Selleckchem (Houston, Tex.) and dissolved in DMSO. Subsequently, the THP1 supernatants were assessed for NFKB or IRF reporter activity.
A20 cells were acquired from ATCC and THP1-Dual cells acquired from InvivoGen (San Diego, Calif.). Both cell types were cultured in 96-well plates for the duration of the assay. 50,000 A20 cells were plated 24 hours prior to dosing with RSL3, with a final DMSO concentration of 0.5%. 24 hours post-treatment, THP1-Dual cells (25,000 cells/well) were added to the A20 cells. 24 hours later, 30 μl of supernatant was mixed with either 200 μl QuantiBlue (InvivoGen, San Diego, Calif.) or 50 μl QuantiLuc and absorbance or luminescence was recorded on a Molecular Devices plate reader.
A20 lymphoma cells were treated with various doses (e.g. 0.002, 0.005, 0.014, 0.041, 0.123, 0.370, 1.111, 3.333 and 10 μM) of a GPX4 inhibitor (RSL3, ML162 or ML210) in the presence or absence of 1 μM Ferrostatin-1 for 24 hours. ML162 was purchased from Cayman Chemical Company Inc and resuspended in DMSO. ML210 was purchased from Sigma-Aldrich and resuspended in DMSO. A20 lymphoma cells were also treated with DMSO as a negative control. After treatment with DMSO or a GPX4 inhibitor for 24 hours, the A20 lymphoma cells were co-cultured with THP1-Dual cells for an additional 24 hours. Subsequently, the THP1 supernatant was assessed for NFKB reporter activity. A20 cells were acquired from ATCC and THP1-Dual cells were acquired from InvivoGen (San Diego, Calif.). Both cell types were cultured in 96-well plates for the duration of the assay.

[3] = system: Caki-1 renal cell carcinoma cells; experiment: Viability of Caki-1 renal cell carcinoma cells treated with ferroptosis inducer, with or without Ferrostatin-1; type: cell-based
NFKB [4] = experiment: NFKB reporter activity in THP1-Dual monocytes co-cultured with treated Caki-1 cells; type: cell-based, human
Procedure: Caki-1 renal cell carcinoma cells were treated with either control (DMSO) or various doses of Erastin, for 24 hours prior to co-culture with THP1-Dual cells for an additional 24 hours. Erastin was purchased from Selleckchem (Houston, Tex.) and dissolved in DMSO. Subsequently, the THP1 supernatants were assessed for NFKB or IRF reporter activity. Caki-1 cells were acquired from ATCC and THP1-Dual cells acquired from InvivoGen (San Diego, Calif.). Both cell types were cultured in 96-well plates for the duration of the assay. 7.500 Caki-1 cells were plated 24 hours prior to dosing with Erastin, with a final DMSO concentration of 0.5%. 24 hours post-treatment, THP1-Dual cells (25,000 cells/well) were added to the Caki-1 cells. 24 hours later, 30 μl of supernatant was mixed with either 200 μl QuantiBlue (InvivoGen) or 50 μl QuantiLuc and absorbance or luminescence was recorded on a Molecular Devices plate reader. Caki-1 renal cell carcinoma cells were treated with either control (DMSO) or various doses of RSL3, for 24 hours prior to co-culture with THP1-Dual cells for an additional 24 hours. RSL3 was purchased from Selleckchem and dissolved in DMSO. Subsequently, the THP1 supernatants were assessed for NFKB or IRF reporter activity. Caki-1 cells were acquired from ATCC and THP1-Dual cells acquired from InvivoGen (San Diego, Calif.). Both cell types were cultured in 96-well plates for the duration of the assay. 7.500 Caki-1 cells were plated 24 hours prior to dosing with […], with a final DMSO concentration of 0.5%. 24 hours post-treatment, THP1-Dual cells (25,000 cells/well) were added to the Caki-1 cells. 24 hours later, 30 μl of supernatant was mixed with either 200 μl QuantiBlue (InvivoGen, San Diego, Calif.) or 50 μl QuantiFuc and absorbance or luminescence was recorded on a Molecular Devices plate reader. […] Subsequently, the THP1 supernatant was assessed for NFKB reporter activity. […]

[5] = system: HT1080 fibrosarcoma cells; experiment: Viability of HT1080 fibrosarcoma cells treated with ferroptosis inducer, with or without ferroptosis inhibitor or siRNA; type: cell-based; conditions: various doses, 24 hours treatment
NFKB [6] = experiment: NFKB reporter activity in THP1-Dual monocytes co-cultured with treated HT1080 cells; type: cell-based, human; conditions: HT1080 cells treated 24 hours, then co-culture with THP1-Dual cells 24 hours
Procedure: HT1080 fibrosarcoma cells were treated with either control (DMSO) or various doses of Erastin, piperazine erastin (PE), or imidazole ketoerastin (IKE) for 24 hours prior to co-culture with THP1-Dual cells for an additional 24 hours. Erastin was purchased from Selleckchem (Houston, Tex.) and dissolved in DMSO. Subsequently, the THP1 supernatants were assessed for nuclear factor kappa-light-chain-enhancer of activated B cells (NFKB) or interferon regulatory factor (IRF) reporter activity.
HT1080 cells were acquired from ATCC and THP1-Dual cells were acquired from InvivoGen (San Diego, Calif.). […] 24 hours later, 30 μl of supernatant was mixed with either 200 μl QuantiBlue (InvivoGen, San Diego, Calif.) (for NFKB reporter activity) or 50 μl QuantiLuc (for IRF reporter activity) and absorbance or luminescence was recorded on a Molecular Devices plate reader.
HT1080 fibrosarcoma cells were treated with various doses of Erastin (e.g. 0.8, 0.16, 0.31, 0.63, 1.25, 2.5, 5, 10 or 20 μM) alone or in combination with a ferroptosis inhibitor (1 μM Ferrostatin-1, 1 μM Liproxstatin-1, 100 μM Trolox, 25 μM β-Mercaptoethanol or 100 μM Deferoxamine) for 24 hours prior to co-culture with THP1-Dual cells for an additional 24 hours. […] Subsequently, the THP1 supernatant was assessed for NFKB activity. […]

C57/B6 mice = experiment: Dextran sodium sulfate colitis in mice; type: in vivo; conditions: 10 mg/kg, i.p., 3-4% dextran sodium sulfate 5 days, compared to vehicle
Procedure: C57/B6 mice are treated with vehicle or Ferrostatin (10 mg/kg, i.p) before the induction of colitis by administration of 3-4% dextran sodium sulfate in the drinking water for 5 days. An anti-inflammatory effect of ferrostatin compared to vehicle is confirmed by […], decreased diarrhea, and decreased weight loss. In addition, inhibition of neutrophil recruitment (innate immune response) by ferrostatin in confirmed by decreased myeloperoxidase activity in the colon (compared to vehicle).

## Cc1onc(C(=O)N2CCN(C(c3ccc(Cl)cc3)c3ccc(Cl)cc3)CC2)c1[N+](=O)[O-] [ML210]
[1]
  viability of A20 cells: decreased viability of the cells in a dose dependent manner
NFKB [2]
  NFKB signaling in THP1 monocytes: increased NFKB activity in THP1 cells in a dose dependent manner

## COc1ccc(N(C(=O)CCl)C(C(=O)NCCc2ccccc2)c2cccs2)cc1Cl (stereo not drawn) [ML162]
[3]; various doses, 24 hours treatment
  viability of Caki-1 cells: decreased viability of the cells in a dose dependent manner
NFKB [4]; Caki-1 cells treated 24 hours, then co-culture with THP1-Dual cells 24 hours
  NFKB signaling in THP1 monocytes: increased NFKB activity in THP1 cells in a dose dependent manner
[1]
  viability of A20 cells: decreased viability of the cells in a dose dependent manner
NFKB [2]
  NFKB signaling in THP1 monocytes: increased NFKB activity in THP1 cells in a dose dependent manner

## CC(C)Oc1ccc(CN2CCNCC2)cc1-n1c(CN2CCN(C(=O)COc3ccc(Cl)cc3)CC2)nc2ccccc2c1=O [PE, piperazine erastin]
[5]
  viability of HT1080 cells: negatively affected the viability
NFKB [6]
  NFKB signaling in THP1 monocytes: elicited NFKB signaling

## CC(C)Oc1ccc(C(=O)Cn2ccnc2)cc1-n1c(CN2CCN(C(=O)COc3ccc(Cl)cc3)CC2)nc2ccccc2c1=O [IKE, imidazole ketoerastin]
[5]
  viability of HT1080 cells: negatively affected the viability
NFKB [6]
  NFKB signaling in THP1 monocytes: elicited NFKB signaling

## CCOC(=O)c1ccc(NC2CCCCC2)c(N)c1 [Ferrostatin-1]
[3]; 1 μM Ferrostatin, 24 hours
  effect on viability of Caki-1 renal carcinoma cells decreased by GPX4 inhibitor (RSL3 or ML162): attenuated
NFKB [4]; 1 μM Ferrostatin
  effect on NFKB activity in THP1 cells increased by RSL3- or ML162-treated Caki-1 cells: attenuated
[1]; 1 μM Ferrostatin-1, 24 hours
  effect on viability of A20 lymphoma cells decreased by GPX4 inhibitor (RSL3, ML162 or ML210): attenuated
NFKB [2]; 1 μM Ferrostatin-1
  effect on NFKB activity in THP1 cells increased by GPX4 inhibitor-treated A20 lymphoma cells: attenuated
C57/B6 mice
  colon length: decreased
  diarrhea: decreased
  myeloperoxidase activity in the colon: decreased
  weight loss: decreased

From patent US20210283091A1, “DECREASING IMMUNE ACTIVITY THROUGH MODULATION OF POSTCELLULAR SIGNALING FACTORS” (FLAGSHIP PIONEERING INNOVATIONS V, INC., priority 2018, published 2021)
